Measured values as given in ChEMBL document CHEMBL4665906, “Novel Potassium Channel Inhibitors” (ACS Med Chem Lett, 2020).

Target: Intermediate conductance calcium-activated potassium channel protein 4 (Homo sapiens, UniProt O15554)
Test: Inhibition of Kca3.1 in human erythrocytes
Assay type: cell-based

Chain of Intermediate conductance calcium-activated potassium channel protein 4 (O15554 whole entry): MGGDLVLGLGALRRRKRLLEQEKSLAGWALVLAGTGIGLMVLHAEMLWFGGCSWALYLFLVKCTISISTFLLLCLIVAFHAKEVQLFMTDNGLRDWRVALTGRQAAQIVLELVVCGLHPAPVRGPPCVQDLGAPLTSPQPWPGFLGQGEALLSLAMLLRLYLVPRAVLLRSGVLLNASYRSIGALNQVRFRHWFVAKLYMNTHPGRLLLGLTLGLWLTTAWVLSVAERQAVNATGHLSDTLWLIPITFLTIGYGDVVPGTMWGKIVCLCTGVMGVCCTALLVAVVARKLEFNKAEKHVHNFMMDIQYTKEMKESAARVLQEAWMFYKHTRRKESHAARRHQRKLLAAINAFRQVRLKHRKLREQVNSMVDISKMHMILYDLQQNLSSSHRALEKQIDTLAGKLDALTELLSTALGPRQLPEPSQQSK

Compound	IC50 [nM]
COC(=O)N(C[C@H]1CCCN1C)C1(c2ccc(F)c(C(F)(F)F)c2)CC1	8.1
COC(=O)N(CC(C)(C)N)C1(c2ccc(F)c(C(F)(F)F)c2)CC1	8.6
COC(=O)N(C[C@@H]1CCCN1)C1(c2ccc(F)c(OC(F)(F)F)c2)CC1	8.7
